Experimental data: publication PMC5527305, “Prevention of Ophthalmia Neonatorum Caused by Neisseria gonorrhoeae Using a Fatty Acid-Based Formulation” (mBio, 2017)
≈ marks a conversion by molar mass, not a printed value. Entries after “also recorded” stand apart in the source; their conditions may differ. Read-outs that look alike come from different tables or passages of the source.

Key:
bovine cornea = assay: Bovine corneal opacity and permeability (BCOP) test
Experimental: Bovine eyes were collected from a local slaughter house (ABP, Guildford, Surrey, United Kingdom) and were transported in cold saline solution for testing at the laboratory. Each eye was first visually examined for signs of damage before use. The test was conducted as detailed by Abdelkader and coworkers ([21]). The exposure time of the test substances was 30 s. The selected bactericidal compounds were tested at 1 mM in saline solution, with a corresponding vehicle control (1% ethanol–saline solution) also performed. […] The test area of the cornea was then washed with 10 ml saline solution. Corneal damage to the test area was assessed by fluorescein staining and examination under a cobalt blue filter. Pathological scoring based on opacity, epithelial integrity, and epithelial detachment was done in accordance with previous publications ([19]). Each of the seven lead candidates was tested in triplicate, and each test was performed on a separate day using a different batch of eyeballs. Corneal histology was done as outlined by Abdelkader and coworkers ([21]) by evaluating the damage to the epithelial layer and stroma of the cornea after hematoxylin and eosin staining.

chorioallantoic membrane = assay: Hen's egg test-chorioallantoic membrane (HET-CAM); set-up: species or system white leghorn eggs
Experimental: The samples were all tested on the HET-CAM at 1 mg/ml, providing a range of 3.6 mM for linolenic acid to 5 mM for lauric acid. […] Results from the controls and an example of a tested candidate are illustrated in Fig. 5.
The HET-CAM was performed as described by Alany and coworkers ([20]). Fertilized white leghorn eggs (Henry Stewart and Co. Ltd., Fakenham, Norfolk, United Kingdom) were checked for damage and incubated at 37°C with 60% to 70% relative humidity. At day 4, the eggs were removed from their shells and placed in incubation chambers. At day 9, the CAMs were tested. This was done by applying 200 µl of the testing material and monitoring inflammatory responses at 30, 120, and 300 s. At each of these time points, the conjunctival irritation potential of the test substance on the CAMs was evaluated by assessing them against the published scoring system ([20]).

[1] = tested on: N. gonorrhoeae strain NCCP11945; assay: Growth inhibition screen on GC solid media containing 1 mM candidate; assay type: cell-based, Neisseria gonorrhoeae; settings: 1 mM candidate in GC agar media; Yes = strain NCCP11945 did not grow
Experimental: (§1) To find potential candidates, 37 organic acids, esters, and salts were tested in a two-tiered screening process. These candidates were chosen based on the carbon chain lengths of the fatty acids, the presence or absence of saturation, and modifications to represent a diverse selection of organic acid candidates. The first screen aimed to determine the ability of each compound to inhibit the growth of N. gonorrhoeae strain NCCP11945 at 1 mM in GC solid media (Table 1). This strain was chosen due to its relatively recent isolation, its antibiotic resistance profile, and the availability of a complete genome sequence. Those candidates able to inhibit the growth of N. gonorrhoeae strain NCCP11945 were investigated in a second assay. The second assay tested the ability of each compound to cause at least a 4-log reduction in viable bacteria at 1 mM with a 2-min exposure time (Table 1).
(§2) The well-characterized N. gonorrhoeae NCCP11945 strain ([36]) was used in the screening stage. Eight isolates obtained from Public Health England, representing circulating isolates from various European locations, were used in the log reduction assays. All isolates were cultured for 24 h prior to testing by plating on GC solid medium (Oxoid Limited, Hampshire, United Kingdom) with Kellogg supplements and incubation at 37°C and 5% CO2 ([37]).

[2] = tested on: N. gonorrhoeae strain NCCP11945; assay: Log reduction assay in GC broth, 2-min exposure; assay type: cell-based, Neisseria gonorrhoeae; settings: for log reduction at 1000 µM: Neisseria gonorrhoeae, NCCP11945, 2 min, 1 mM, read-out: Log reduction at 1 mM (calculated log reduction in viable bacteria); for log reduction at 1000 µM / Log reduction at 1 mM (calculated log reduction in viable bacteria): maximum score 6 = all cells killed
Experimental: as §1
(§3) Log reductions were done as described by Bergsson and coworkers ([18]). Briefly, cells were suspended in GC broth (18 g/liter GC base [Oxoid, Limited] with added defined supplements) to an optical density at 520 nm of 0.3, which is approximately equivalent to 10^7 to 10^8 cells per ml ([38]). […] The contents of the tubes were then mixed at room temperature for 2 min and immediately diluted in a 10-fold dilution series to 10^−4. The dilutions were plated by spreading 10 µl on a quarter of a plate; a 100-µl neat solution was also plated. Plates were then incubated at 37°C for 48 h, with all samples plated in duplicate. […] Additional testing at lower concentrations was also done on the eight clinical isolates of European origin.

[3] = tested on: nine gonococcal isolates (strain NCCP11945 and eight isolates from Public Health England); assay: Minimum bactericidal concentration by log reduction against nine gonococcal isolates; assay type: cell-based, Neisseria gonorrhoeae; settings: for Killing of all gonococcal cells for all isolates: 1 mM; for MBC: lowest concentration giving mean log reduction above 4 from a 2-min exposure
From the text: The seven candidates were further tested against nine gonococcal isolates, including strain NCCP11945 and eight isolates from Public Health England, to find their minimal bactericidal concentration (MBC). This was defined as the lowest concentration tested to give an average 4-log10 reduction in bacterial count after a 2-min exposure. […] Any candidate that killed all gonococcal cells in the cell suspension was given a log reduction score of six.
as §2, §3

bovine RBCs = assay: Red blood cell (RBC) lysis assay; assay type: cell-based
Experimental: Whole bovine blood was obtained from a local slaughter house (ABP), adding 90 ml blood to 10 ml 110 mM trisodium citrate anticoagulant. RBCs were isolated the same day. The RBCs were washed by three repeats of centrifugation (1,500 × g for 10 min) and resuspension in phosphate-buffered saline (PBS) with 10 mM glucose (PBSG). Testing was done following the guidelines of the European Union Reference Laboratory for alternatives to animal testing (EURL-ECVAM) ([22]). The organic acids were solubilized in dimethyl sulfoxide (DMSO) and diluted to a maximum DMSO concentration of 10%. In a 2-ml centrifuge tube, 750 µl of the sample was added to 250 µl RBCs. Controls used in the assay were a complete lysis control (deionized water) and a fragility control (PBSG–10% DMSO). Samples were shaken at room temperature for 1 h and then centrifuged at 14,000 × g for 2 min. An aliquot of 750 µl of the supernatant was taken and its absorbance at 451 nm measured.

[4] = tested on: gonococcal cells (isolate NCCP 11945); assay: Log reduction in artificial tear fluid with or without calcium chloride; assay type: cell-based, Neisseria gonorrhoeae; settings: for Reduction in bacterial cell number in artificial tear fluid containing calcium chloride / Antigonococcal properties in tear fluid made without calcium chloride: 1 mM candidate, 2 min; for Reduction in bacterial cell number in artificial tear fluid containing calcium chloride: with calcium; for Effect of calcium in artificial tear fluid on antimicrobial effect: calcium 1 mM, Fig. 2
Experimental: The antigonococcal properties of the seven selected fatty acids were tested in artificial tear fluid, which contained calcium chloride. The addition of 1 mM lauric acid, tridecanoic acid, or sodium dodecanoate gave no reduction in bacterial cell number after exposure, in contrast to the results seen when they were tested in culture medium (Fig. 2). […] This was most likely due to the negative effect of calcium on the aqueous solubility of these candidates.
Artificial tear fluid was made as described by Mirejovsky and others ([39]) with or without calcium chloride. […] As with the previous log reductions, 10^7 gonococcal cells (isolate NCCP 11945) were suspended in GC broth. The cell suspension was centrifuged to remove the culture medium, and the bacteria were resuspended in the tear fluid. This was then added to the concentrated organic acid candidates. The cells were then enumerated again after 2 min of exposure to estimate any reduction in cell number due to the exposure to the organic acid.

S. aureus = tested on: S. aureus; set-up: method as in PMID 22808139; settings: continuous passage on sublethal concentrations for a year; cited from earlier work
C. trachomatis = tested on: C. trachomatis; set-up: method as in PMID 9736551; settings: cited from earlier work
[5] = Neisseria gonorrhoeae, 2 min, read-out: MBC

Compound	Growth inhibition [1]	Log reduction at 1 mM: at least a 4-log reduction in viable bacteria (Yes/No) [2]	log reduction at 1000 µM [2]	Killing of all gonococcal cells for all isolates ([3]; 2 min)	MBC [3, 5]	Effect of calcium in artificial tear fluid on antimicrobial effect [4]	also measured
[Na+].[OH-] [Sodium Hydroxide, sodium hydroxide, reference compound]							Corneal opacity, fluorescein staining and histology of epithelial layer (bovine cornea; Fig. 4): complete detachment; HET-CAM irritancy / reaction at site of application (chorioallantoic membrane): Strong Irritant
CC/C=C\C/C=C\C/C=C\CCCCCCCC(=O)O [Linolenic acid]	Yes	Yes	> 6	did not	500 µM (≈ 139 µg/mL)		Mean cumulative BCOP score (bovine cornea; 1 mM in saline solution, 30 s exposure, triplicate): lower than 0.5; Fluorescein staining of cornea (bovine cornea; 1 mM, around rubber application ring): any sign of fluorescein staining; BCOP irritancy classification (bovine cornea; candidates 1 mM in saline, controls 0.5 M NaOH, 100% acetone, 30 s exposure): nonirritants; H50 concentration relative to MBC (bovine RBCs; H50 = concentration to lyse 50% of RBCs, MBC from Table 1): lower than their minimum bactericidal concentration
CCCCCCCCCCCCC(=O)O [Tridecanoic acid]	Yes	Yes	> 6	did not	750 µM (≈ 161 µg/mL)	inactivated	Reduction in bacterial cell number in artificial tear fluid containing calcium chloride [4]: no reduction; Antigonococcal properties in tear fluid made without calcium chloride [4]: completely restored; H50 concentration relative to MBC (bovine RBCs): greater than their MBCs; RBC lysis (hemolysis) (bovine RBCs; 1 h incubation, bovine RBCs): did not lyse RBCs at any concentration investigated; also recorded: did not cause any hemolysis
CCCCCCCCCCCC(=O)OCC(O)CO (stereo not drawn) [Monolaurin]	Yes	No					Log reduction at 1 mM (calculated log reduction in viable bacteria) [2]: 3.4 log10; Development of antimicrobial resistance (S. aureus): did not develop
CCCCCCCCCCCC(=O)O [Lauric acid]	Yes	Yes		killed all gonococcal cells for all isolates		inactivated	Log reduction at 1 mM (calculated log reduction in viable bacteria) [2]: > 6 log10; MBC [3]: 750 µM (≈ 150 µg/mL); Reduction in bacterial cell number in artificial tear fluid containing calcium chloride [4]: no reduction; Antigonococcal properties in tear fluid made without calcium chloride [4]: completely restored; H50 concentration relative to MBC (bovine RBCs): greater than their MBCs
CC(C)=O [Acetone, acetone]							HET-CAM irritancy / reaction at site of application (chorioallantoic membrane): Medium Irritant
CCCC/C=C\CCCCCCCC(=O)O [Myristoleic acid]	Yes	Yes	> 6	killed all gonococcal cells for all isolates	500 µM (≈ 113 µg/mL)	unaffected	Activity against C. trachomatis (C. trachomatis): ineffective
